Assay results taken from ChEMBL document CHEMBL6127073, “Utilizing artificial intelligence for precision exploration of N protein targeting phenanthridine sars-cov-2 inhibitors: A novel approach” (Eur J Med Chem, 2024).
The source made the active and inactive calls. The calls are words filed in the database; no cut-off is given here.

Legend:
Nucleoprotein [1] = molecular target: T1, Nucleoprotein (Severe acute respiratory syndrome coronavirus 2, UniProt P0DTC9); assay: Binding affinity to SARS-CoV-2 N-pro assessed as dissociation constant by SPR analysis
[2] = Cytotoxicity against African green monkey Vero E6 cells after 72 hrs by CCK8 assay; type: toxicity, cell-based, Vero C1008; conditions: chlorocebus sabaeus
Nucleoprotein [3] = molecular target: T1, Nucleoprotein; assay: Binding affinity to SARS-CoV-2 N-pro assessed as dissociation constant in presence of ssRNA by MST analysis
[4] = Selectivity index, ratio of CC50 for cytotoxicity against African green monkey Vero E6 cells to EC50 for antiviral activity against SARS-CoV-2 107 infected in African green monkey Vero E6 cells; type: toxicity, cell-based; conditions: read-out: Ratio CC50/EC50
[5] = molecular target: Nucleoprotein (Severe acute respiratory syndrome coronavirus 2) (UniProt P0DTC9); assay: Inhibition of ssRNA binding to SARS-CoV-2 N-pro at 100 uM by MST analysis relative to control
SARS-CoV-2 [6] = assay: Antiviral activity against SARS-CoV-2 107 infected in African green monkey Vero E6 cells assessed as inhibition of virus induced cytopathic effect by neutral red staining based analysis; type: functional, organism-based; conditions: Severe acute respiratory syndrome coronavirus 2, time 74.0 hrs
Nucleoprotein [7] = molecular target: T1, Nucleoprotein; assay: Binding affinity to SARS-CoV-2 N-pro assessed as dissociation constant by MST analysis
SARS-CoV-2 [8] = assay: Antiviral activity against SARS-CoV-2 107 infected in African green monkey Vero E6 cells assessed as increase in cell survival rate at 50 uM pre-infected with virus followed by compound addition for 2 hrs and measured after 72 hrs by MTT assay; type: functional, organism-based; conditions: Severe acute respiratory syndrome coronavirus 2, time 74.0 hrs
SARS-CoV-2 [9] = assay: Antiviral activity against SARS-CoV-2 107 infected in African green monkey Vero E6 cells assessed as inhibition of viral replication pre-infected with virus followed by compound addition and measured after 72 hrs by inverted microscopic analysis; type: functional, organism-based; conditions: Severe acute respiratory syndrome coronavirus 2, 107, Vero C1008, 72 h
Nucleoprotein [10] = molecular target: T1, Nucleoprotein; assay: Binding affinity to wild type SARS-CoV-2 N-pro assessed as dissociation constant by MST analysis

Compound	Kd (Nucleoprotein [1]) [µM]	also measured
CCN1Cc2cc(OC)c(OC)cc2-c2cccc(NC(=O)c3cc([N+](=O)[O-])cc([N+](=O)[O-])c3)c21	37.9	
CCN1Cc2cc(OC)c(OC)cc2-c2cccc(NCc3ccc(C4(C(F)(F)F)N=N4)cc3)c21	37	
CCN1Cc2cc(OC)c(OC)cc2-c2cccc(NC(=O)Nc3cccc4c3N(CC)Cc3cc(OC)c(OC)cc3-4)c21	4.58	
CCn1c(=O)c2cc(OC)c(OC)cc2c2cccc(/N=C/c3c4ccccc4cc4ccccc34)c21	9.71	
CCN1Cc2cc(OC)c(OC)cc2-c2cccc(Nc3ccc4c(c3)oc3ccccc34)c21	44.1	
CCn1c(=O)c2cc(OC)c(OC)cc2c2cccc(NS(=O)(=O)c3ccc(Cl)cc3)c21	5.27	
CCn1c(=O)c2cc(OC)c(OC)cc2c2cccc(C3C4=C(CCCC4=O)N(c4ccccc4)C4=C3C(=O)CCC4)c21	168	
CCn1c(=O)c2cc(OC)c(OC)cc2c2cccc(/C=N/c3nc[nH]n3)c21	63.7	
CCN1Cc2cc(OC)c(OC)cc2-c2cccc(Nc3ncnc4c3nnn4Cc3ccccc3)c21	0.35	CC50 at 72 h [2]: > 200 µM; Kd (Nucleoprotein [3]): 83.7 µM; selectivity ratio [4]: > 17.7; inhibition [5]: 100%; Activity (SARS-CoV-2 [6]): Active; Kd (Nucleoprotein [7]): 0.73 µM; Activity (SARS-CoV-2 [8]): Active; EC50 (SARS-CoV-2 [9]): 11.3 µM; Kd (Nucleoprotein [10]): 5.4 µM
CCN1Cc2cc(OC)c(OC)cc2-c2cccc(NCc3csc4ccc(Cl)cc34)c21	97.7	
CCn1c(=O)c2cc(OC)c(OC)cc2c2cccc(/C=N/C3C=CNN3)c21 (stereo unspecified)	2.53	
CCN1Cc2cc(OC)c(OC)cc2-c2cccc(NC(=O)Cc3ccccc3)c21	5.31	
